Data set [1] concerns the target Leucine-rich repeat serine/threonine-protein kinase 2 (Homo sapiens, UniProt Q5S007). The experiment in a line: Inhibition of human LRRK2 (1885 to 2132) using 5-Fluo-Ahx-RLGRDKYKTLRQIRQGNTK-OH as substrate after 60 mins by fluorescence assay.
Data set [2] addresses ALK tyrosine kinase receptor (Homo sapiens, UniProt Q9UM73). The experiment in a line: Inhibition of ALK (unknown origin).
Data set [3] deals with Tyrosine-protein kinase Lck (Homo sapiens, UniProt P06239). The experiment in a line: Inhibition of LCK (unknown origin).
The target of data set [4] is Platelet-derived growth factor receptor alpha (Homo sapiens, UniProt P16234). As to the kind of experiment: Inhibition of PDGFRa (unknown origin).
Data set [5] has as its target Proto-oncogene tyrosine-protein kinase receptor Ret (Homo sapiens, UniProt P07949). As to the kind of experiment: Inhibition of RET (unknown origin).
Data set [6] has as its target Vascular endothelial growth factor receptor 2 (Homo sapiens, UniProt P35968). As to the kind of experiment: Inhibition of KDR (unknown origin).
Data set [7] can be described thus: Solubility of the compound at pH 6.8. The data set is classed as physicochemical. The settings on record: buffer.
The test system of data set [8] is Mus musculus. The experiment in a line: Binding affinity to LRRK2 in C57BL/6 mouse brain at 10 to 180 mg/kg, po after 2 hrs by pull down assay relative to vehicle-treated control. The data set is classed as functional, organism-based.
For data set [9], the target named is Leucine-rich repeat serine/threonine-protein kinase 2 (Mus musculus) (UniProt Q5S006). The experiment in a line: Binding affinity to LRRK2 in C57BL/6 mouse brain at 1 uM after 30 mins by competition pull down assay. The data set is classed as tissue-based.
For data set [10] the target is unchanged. The experiment in a line: Binding affinity to LRRK2 in mouse C2C12 cells at 1 uM after 30 mins by competition pull down assay. The data set is classed as cell-based.
Data set [11] has as its system Mus musculus. As to the kind of experiment: Binding affinity to LRRK2 in C57BL/6 mouse brain at 90 mg/kg, iv after 1 hr by pull down assay. The data set is classed as functional, organism-based. The arrangement: dose 90 mg/kg.
In data set [12] the test system is Mus musculus. As to the kind of experiment: Binding affinity to LRRK2 in po dosed C57BL/6 mouse brain after 2 hrs by pull down assay. The data set is classed as functional, organism-based.

These results are taken from ChEMBL document CHEMBL2401634, “Discovery of novel indolinone-based, potent, selective and brain penetrant inhibitors of LRRK2” (Bioorg Med Chem Lett, 2013).

≈ marks a conversion by molar mass, not a printed value. Calls of active or inactive are those of the source. The rule behind the calls is not given here.

Sequence of Platelet-derived growth factor receptor alpha (P16234 whole entry): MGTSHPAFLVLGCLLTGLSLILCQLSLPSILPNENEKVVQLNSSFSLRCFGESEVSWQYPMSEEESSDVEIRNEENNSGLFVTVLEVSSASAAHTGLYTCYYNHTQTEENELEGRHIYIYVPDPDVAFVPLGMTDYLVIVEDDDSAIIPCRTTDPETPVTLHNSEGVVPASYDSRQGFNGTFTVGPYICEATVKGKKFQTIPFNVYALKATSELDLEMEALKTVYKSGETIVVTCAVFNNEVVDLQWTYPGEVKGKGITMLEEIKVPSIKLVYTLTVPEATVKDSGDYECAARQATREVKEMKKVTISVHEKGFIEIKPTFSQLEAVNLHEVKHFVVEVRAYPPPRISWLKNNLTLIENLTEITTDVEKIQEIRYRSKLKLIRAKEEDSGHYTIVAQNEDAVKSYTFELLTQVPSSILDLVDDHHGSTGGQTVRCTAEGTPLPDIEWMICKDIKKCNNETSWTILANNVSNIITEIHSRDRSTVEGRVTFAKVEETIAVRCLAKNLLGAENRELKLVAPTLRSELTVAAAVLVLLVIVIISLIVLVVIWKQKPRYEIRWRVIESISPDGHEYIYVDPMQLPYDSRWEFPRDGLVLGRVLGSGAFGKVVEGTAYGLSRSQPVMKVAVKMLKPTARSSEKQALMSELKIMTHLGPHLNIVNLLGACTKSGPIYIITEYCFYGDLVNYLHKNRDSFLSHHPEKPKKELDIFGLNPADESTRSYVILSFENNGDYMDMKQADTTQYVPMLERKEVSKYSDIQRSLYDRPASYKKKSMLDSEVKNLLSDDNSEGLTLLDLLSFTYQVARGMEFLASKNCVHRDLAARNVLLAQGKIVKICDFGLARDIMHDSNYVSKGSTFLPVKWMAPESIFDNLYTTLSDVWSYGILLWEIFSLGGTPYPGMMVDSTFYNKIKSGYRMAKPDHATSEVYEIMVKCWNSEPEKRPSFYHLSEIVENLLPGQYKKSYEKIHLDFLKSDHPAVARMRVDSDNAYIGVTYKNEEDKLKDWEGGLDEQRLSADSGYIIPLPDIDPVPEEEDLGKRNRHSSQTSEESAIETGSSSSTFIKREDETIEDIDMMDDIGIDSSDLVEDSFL
Sequence of Tyrosine-protein kinase Lck (P06239 whole entry): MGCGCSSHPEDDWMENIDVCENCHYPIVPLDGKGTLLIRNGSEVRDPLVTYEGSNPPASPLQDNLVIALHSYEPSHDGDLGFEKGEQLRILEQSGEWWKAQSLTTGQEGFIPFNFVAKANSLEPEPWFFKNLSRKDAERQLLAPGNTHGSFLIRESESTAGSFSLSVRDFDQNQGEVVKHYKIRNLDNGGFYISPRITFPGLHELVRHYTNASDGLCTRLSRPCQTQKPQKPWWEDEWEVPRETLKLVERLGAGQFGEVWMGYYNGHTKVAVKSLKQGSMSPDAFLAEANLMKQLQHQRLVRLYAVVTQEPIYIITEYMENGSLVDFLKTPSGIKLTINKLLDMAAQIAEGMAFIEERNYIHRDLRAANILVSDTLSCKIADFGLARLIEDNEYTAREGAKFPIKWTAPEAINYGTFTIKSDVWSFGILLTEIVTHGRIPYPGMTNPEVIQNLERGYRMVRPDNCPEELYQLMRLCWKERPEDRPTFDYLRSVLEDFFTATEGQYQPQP
Sequence of Proto-oncogene tyrosine-protein kinase receptor Ret (P07949 whole entry): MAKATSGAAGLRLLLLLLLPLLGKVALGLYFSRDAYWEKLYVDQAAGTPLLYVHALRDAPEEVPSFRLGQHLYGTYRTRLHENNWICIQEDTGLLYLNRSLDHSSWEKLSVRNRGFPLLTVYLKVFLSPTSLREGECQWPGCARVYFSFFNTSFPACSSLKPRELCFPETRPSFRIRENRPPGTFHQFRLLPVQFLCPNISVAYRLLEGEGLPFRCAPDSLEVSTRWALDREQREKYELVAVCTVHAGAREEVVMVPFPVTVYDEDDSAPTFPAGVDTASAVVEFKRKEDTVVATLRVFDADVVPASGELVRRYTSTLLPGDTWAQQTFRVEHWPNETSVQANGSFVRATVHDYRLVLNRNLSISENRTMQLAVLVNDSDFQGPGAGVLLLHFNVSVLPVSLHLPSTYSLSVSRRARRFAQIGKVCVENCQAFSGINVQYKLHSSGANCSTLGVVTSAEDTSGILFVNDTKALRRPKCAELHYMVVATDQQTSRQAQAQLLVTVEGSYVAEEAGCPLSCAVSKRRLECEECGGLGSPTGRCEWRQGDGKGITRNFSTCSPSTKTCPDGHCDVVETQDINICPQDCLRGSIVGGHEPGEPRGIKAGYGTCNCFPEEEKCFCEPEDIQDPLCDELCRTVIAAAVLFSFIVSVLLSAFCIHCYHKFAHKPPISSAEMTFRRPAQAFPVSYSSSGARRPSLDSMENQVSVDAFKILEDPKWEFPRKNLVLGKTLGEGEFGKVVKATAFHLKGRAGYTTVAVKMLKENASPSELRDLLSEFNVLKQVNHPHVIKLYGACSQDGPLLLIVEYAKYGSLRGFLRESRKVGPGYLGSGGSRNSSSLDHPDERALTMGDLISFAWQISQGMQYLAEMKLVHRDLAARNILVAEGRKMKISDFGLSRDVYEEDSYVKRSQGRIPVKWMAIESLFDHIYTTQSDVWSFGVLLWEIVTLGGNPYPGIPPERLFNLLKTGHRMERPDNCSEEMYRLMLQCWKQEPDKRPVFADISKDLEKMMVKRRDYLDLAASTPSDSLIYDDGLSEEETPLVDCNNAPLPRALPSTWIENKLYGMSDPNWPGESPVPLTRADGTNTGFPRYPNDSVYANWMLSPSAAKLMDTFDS
Sequence of Vascular endothelial growth factor receptor 2 (P35968 whole entry): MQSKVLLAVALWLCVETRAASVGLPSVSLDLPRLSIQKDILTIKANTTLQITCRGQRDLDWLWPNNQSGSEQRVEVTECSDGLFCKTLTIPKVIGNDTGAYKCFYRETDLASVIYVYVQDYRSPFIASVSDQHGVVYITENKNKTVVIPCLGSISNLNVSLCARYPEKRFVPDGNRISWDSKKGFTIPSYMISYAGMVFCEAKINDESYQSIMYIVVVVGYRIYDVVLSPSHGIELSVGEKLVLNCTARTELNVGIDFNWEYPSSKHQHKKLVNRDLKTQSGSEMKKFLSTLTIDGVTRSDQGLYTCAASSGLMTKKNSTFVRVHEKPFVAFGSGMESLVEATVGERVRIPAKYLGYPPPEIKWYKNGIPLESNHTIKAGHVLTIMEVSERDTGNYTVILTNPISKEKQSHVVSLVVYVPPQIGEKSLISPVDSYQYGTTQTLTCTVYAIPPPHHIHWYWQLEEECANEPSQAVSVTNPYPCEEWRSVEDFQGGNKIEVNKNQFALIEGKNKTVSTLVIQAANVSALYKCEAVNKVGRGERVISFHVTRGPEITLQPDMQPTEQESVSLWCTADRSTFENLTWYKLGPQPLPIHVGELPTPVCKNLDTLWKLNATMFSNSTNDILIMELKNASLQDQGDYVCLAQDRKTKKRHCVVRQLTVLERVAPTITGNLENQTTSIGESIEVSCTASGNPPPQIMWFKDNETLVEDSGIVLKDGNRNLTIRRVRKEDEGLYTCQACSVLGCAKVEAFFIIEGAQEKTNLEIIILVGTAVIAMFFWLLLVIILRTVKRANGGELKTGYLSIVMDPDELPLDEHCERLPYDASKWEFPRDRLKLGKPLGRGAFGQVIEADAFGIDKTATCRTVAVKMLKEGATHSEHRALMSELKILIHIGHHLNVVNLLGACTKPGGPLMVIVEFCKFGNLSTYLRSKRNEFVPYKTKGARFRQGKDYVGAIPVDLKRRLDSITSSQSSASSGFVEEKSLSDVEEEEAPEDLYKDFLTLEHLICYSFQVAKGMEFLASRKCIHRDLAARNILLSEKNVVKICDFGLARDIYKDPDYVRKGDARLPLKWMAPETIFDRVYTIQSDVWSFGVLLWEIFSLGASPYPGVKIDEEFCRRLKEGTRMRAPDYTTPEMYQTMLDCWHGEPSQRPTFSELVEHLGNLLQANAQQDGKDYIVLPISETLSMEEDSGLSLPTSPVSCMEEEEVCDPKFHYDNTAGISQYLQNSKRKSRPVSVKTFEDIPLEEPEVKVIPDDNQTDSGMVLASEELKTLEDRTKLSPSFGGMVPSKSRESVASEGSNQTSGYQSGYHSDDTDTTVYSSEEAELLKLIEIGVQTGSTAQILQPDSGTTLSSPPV

For the molecule `CN1CCC(Nc2ccc3c(c2)/C(=C/c2cc4c([nH]2)CCN(C(=O)N2CCOCC2)C4)C(=O)N3)CC1`, the IC50 was under 3 nM in [1]; 76 nM in data set [2]; 7 nM in [3]; 13 nM in [4]; 5 nM in data set [5]; 3 nM in data set [6].

Turning to `CC(=O)N1CCc2[nH]c(/C=C3\C(=O)Nc4ccc(C#N)cc43)cc2C1`, the IC50 was 7 nM in data set [1]; 1600 nM in [2]; 120 nM in data set [3]; under 3 nM in data set [4]; 4 nM in data set [5]; 20 nM in [6].

With `CC(=O)N1CCc2[nH]c(/C=C3\C(=O)Nc4ccc(C(F)(F)F)cc43)cc2C1`, the IC50 in [1] was found to be 31 nM; in data set [2] it was 9500 nM; in data set [3], 360 nM; in data set [4], 60 nM; in [5] it was 300 nM; in data set [6], 320 nM.

Turning to `CC(=O)Nc1ccc2c(c1)/C(=C/c1cc3c([nH]1)CCN(C(=O)N1CCOCC1)C3)C(=O)N2`, the IC50 in [1] stood at 4 nM; in [2], 210 nM; in [3] it was 330 nM; in [4], 91 nM; in data set [5] it was 25 nM; in data set [6], 7 nM.

Consider `CC(=O)N1CCc2[nH]c(/C=C3\C(=O)Nc4ccc(OC(C)C)cc43)cc2C1`, for which the IC50 in data set [1] came to 4 nM; in data set [2], 3300 nM; in [3] it was 1100 nM; in [4] it was 1700 nM; in [5], 150 nM; in data set [6], 900 nM. In [7], this molecule came in with a solubility of under 1 µg/mL.

As for `COc1ccc2c(c1)/C(=C/c1cc3c([nH]1)CCN(C(=O)N1CCOCC1)C3)C(=O)N2`, the IC50 was found to be 3 nM in [1]; 660 nM in data set [2]; 120 nM in data set [3]; 150 nM in data set [4]; 25 nM in [5]; 5 nM in data set [6].

On to `CC(=O)N1CCc2[nH]c(/C=C3\C(=O)Nc4ccc([N+](=O)[O-])cc43)cc2C1`, for which the IC50 in data set [1] is under 3 nM; in data set [2] it was over 10000 nM; in [3] it was 1000 nM; in data set [4], 31 nM; in data set [5], 73 nM; in [6], 60 nM.

Consider `COc1ccc2c(c1)/C(=C/c1cc3c([nH]1)CCN(C(C)=O)C3)C(=O)N2`, for which the IC50 turned out to be 14 nM in data set [1]; 1500 nM in data set [2]; 6050 nM in data set [3]; 250 nM in [4]; 54 nM in data set [5]; 210 nM in data set [6].

Take `COc1ccc2c(c1)/C(=C/c1[nH]c(C)c(C(=O)NCCCN)c1C)C(=O)N2`: the IC50 is 46 nM in data set [1]; under 1000 nM in data set [2]; under 1000 nM in [3]; under 1000 nM in [4]; under 1000 nM in data set [5]; under 1000 nM in data set [6].

On to `COc1ccc2c(c1)/C(=C/c1[nH]c3c(c1Cl)CN(C(C)=O)CC3)C(=O)N2`, for which the IC50 is 8 nM in data set [1]; over 10000 nM in [2]; 1100 nM in data set [3]; 34 nM in data set [5]; 87 nM in data set [6].

For the molecule `COc1ccc2c(c1)/C(=C/c1cc3c([nH]1)CCN(C(=O)N1CCOCC1)C3)C(=O)N2C`, in [1], the IC50 was 150 nM.

As to `COc1ccc2c(c1)/C(=C/c1cc3c([nH]1)CCN(C(=O)CCN)C3)C(=O)N2`, the IC50 in data set [1] came out at 11 nM; in data set [2] it was 370 nM; in data set [3], 140 nM; in data set [4], 120 nM; in data set [5], 4 nM; in [6], 8 nM.

Take `O=C1Nc2ccc(C(F)(F)F)cc2/C1=C/c1cc2c([nH]1)CCN(C(=O)N1CCOCC1)C2`: the IC50 in data set [1] was under 3 nM; in data set [2], over 10000 nM; in data set [3] it was 180 nM; in data set [4], 46 nM; in [5], 140 nM; in data set [6], 83 nM.

As to `COc1ccc2c(c1)/C(=C/c1cc3c([nH]1)CCN(C(=O)N1CCN(C)CC1)C3)C(=O)N2`, the IC50 in data set [1] was found to be 9 nM; in data set [2], 550 nM; in [3], 50 nM; in data set [4], 60 nM; in data set [5] it was 6 nM; in data set [6] it was 6 nM. The result (in the data set with Mus musculus [8]; in data set [9]; in data set [10]) was Active. In [7], this molecule displayed a solubility of 15 µg/mL (≈ 35.6 µM). For the same molecule, the outcome in the data set with Mus musculus [11] was inactive. Also, the Activity entry in the data set on Mus musculus [12] is “Dose-dependent effect”.

With `COc1ccc2c(c1)/C(=C/c1cc3c([nH]1)CCN(C(=O)c1cnoc1C)C3)C(=O)N2`, the IC50 turned out to be 7 nM in data set [1]; 1400 nM in [2]; 390 nM in [3]; 540 nM in data set [4]; 75 nM in data set [5]; 16 nM in data set [6].
